Experiment: excess molar enthalpy (molar enthalpy of mixing); xn = mol fraction of the nth substance listed
Settings: 308.15 K, 100 kPa

CS(C)=O + COC(=O)OC
Settings | excess molar enthalpy [kcal/mol]
x1 = 0.0473 | 0.0447
x1 = 0.0904 | 0.0755
x1 = 0.1297 | 0.0989
x1 = 0.1657 | 0.111
x1 = 0.2296 | 0.129
x1 = 0.3735 | 0.147
x1 = 0.5438 | 0.145
x1 = 0.6414 | 0.138
x1 = 0.7045 | 0.127
x1 = 0.7815 | 0.112
x1 = 0.8267 | 0.097
x1 = 0.8774 | 0.077
x1 = 0.9051 | 0.0631
x1 = 0.9662 | 0.0246

CC1COC(=O)O1 (stereo unspecified) + CS(C)=O
Settings | excess molar enthalpy [kcal/mol]
x2 = 0.0571 | 0.0186
x2 = 0.108 | 0.0332
x2 = 0.1538 | 0.0457
x2 = 0.195 | 0.0545
x2 = 0.2666 | 0.0703
x2 = 0.3264 | 0.0803
x2 = 0.4209 | 0.0915
x2 = 0.492 | 0.0989
x2 = 0.6857 | 0.0949
x2 = 0.7441 | 0.0856
x2 = 0.8135 | 0.0712
x2 = 0.9458 | 0.0263
x2 = 0.9721 | 0.0139

CCOC(=O)OCC + CS(C)=O
Settings | excess molar enthalpy [kcal/mol]
x2 = 0.0666 | 0.0901
x2 = 0.1249 | 0.146
x2 = 0.1764 | 0.183
x2 = 0.2221 | 0.208
x2 = 0.3635 | 0.247
x2 = 0.4614 | 0.252
x2 = 0.6315 | 0.232
x2 = 0.7199 | 0.206
x2 = 0.7741 | 0.179
x2 = 0.8371 | 0.149
x2 = 0.8727 | 0.125
x2 = 0.9115 | 0.0939
x2 = 0.932 | 0.0755
x2 = 0.9536 | 0.0547

Reference: a compilation of properties of binary mixtures (doi:10.1021/je050444g)
